What was measured:
Calu-3 [1] = test: cell viability relative to DMSO; higher = less toxic; conditions: 72 h
Vero E6 [2] = test: as above; conditions: 72 h
U2OS [3] = test: as above; conditions: 72 h
Caco-2 [4] = test: as above; conditions: 72 h
HepG2 [5] = test: as above; conditions: 72 h
A549-ACE2 [6] = test: phospholipidosis EC50; higher = less potent phospholipidosis inducer
A549-ACE2 [7] = test: drug-induced phospholipidosis relative to tamoxifen; higher = more phospholipidosis
[8] = tested on: A549-ACE2 infected with SARS-CoV-2; test: cell count relative to DMSO; higher = less toxic; conditions: 24 h
Calu-3 [9] = test: drug sensitivity score (DSS) for viability; higher = more toxic; extreme values may be limits of the assay; conditions: 72 h
Vero E6 [10] = test: as above; conditions: 72 h
U2OS [11] = test: as above; conditions: 72 h
Caco-2 [12] = test: as above; conditions: 72 h
HepG2 [13] = test: as above; conditions: 72 h
Calu-3 [14] = test: relative viability EC50 (midpoint between 100% and the lowest measured viability); higher = less toxic; conditions: 72 h
U2OS [15] = test: as above; conditions: 72 h
Caco-2 [16] = test: as above; conditions: 72 h
HepG2 [17] = test: as above; conditions: 72 h
[18] = tested on: A549-ACE2 infected with SARS-CoV-2; test: SARS-CoV-2 infection rate relative to DMSO; higher = more infection; conditions: 24 h
[19] = tested on: A549-ACE2 infected with SARS-CoV-2; test: morphology score (similarity to uninfected cells); higher = more like uninfected cells; conditions: 24 h
Vero E6 [20] = test: relative viability EC50 (midpoint between 100% and the lowest measured viability); higher = less toxic; conditions: 72 h

Cc1[nH]c(/C=C2\C(=O)Nc3ccc(S(=O)(=O)Cc4c(Cl)cccc4Cl)cc32)c(C)c1C(=O)N1CCC[C@@H]1CN1CCCC1
Conditions | SARS-CoV-2 infection rate [%] | cell count [%] | cell viability [%] | morphology score | phospholipidosis EC50 [µM]
A549-ACE2 [6], 24 h | – | – | – | – | 3.45
A549-ACE2 [6], 48 h | – | – | – | – | 3.61
A549-ACE2 [6], 72 h | – | – | – | – | 3.54
Caco-2 [4], 1 nM | – | – | 90.9 | – | –
Caco-2 [4], 10 nM | – | – | 99.2 | – | –
Caco-2 [4], 100 nM | – | – | 104 | – | –
Caco-2 [4], 1000 nM | – | – | 103 | – | –
Caco-2 [4], 10000 nM | – | – | 3.7 | – | –
Calu-3 [1], 1 nM | – | – | 100 | – | –
Calu-3 [1], 10 nM | – | – | 98.2 | – | –
Calu-3 [1], 100 nM | – | – | 109 | – | –
Calu-3 [1], 1000 nM | – | – | 100 | – | –
Calu-3 [1], 10000 nM | – | – | 4.3 | – | –
HepG2 [5], 1 nM | – | – | 102 | – | –
HepG2 [5], 10 nM | – | – | 96.9 | – | –
HepG2 [5], 100 nM | – | – | 102 | – | –
HepG2 [5], 1000 nM | – | – | 104 | – | –
HepG2 [5], 10000 nM | – | – | 3.3 | – | –
U2OS [3], 1 nM | – | – | 97.2 | – | –
U2OS [3], 10 nM | – | – | 100 | – | –
U2OS [3], 100 nM | – | – | 95.7 | – | –
U2OS [3], 1000 nM | – | – | 103 | – | –
U2OS [3], 10000 nM | – | – | 0.9 | – | –
Vero E6 [2], 1 nM | – | – | 99.9 | – | –
Vero E6 [2], 10 nM | – | – | 97.5 | – | –
Vero E6 [2], 100 nM | – | – | 101 | – | –
Vero E6 [2], 1000 nM | – | – | 91.1 | – | –
Vero E6 [2], 10000 nM | – | – | 57 | – | –
[8], 0.1 µM | – | 98 | – | – | –
[8], 0.3 µM | – | 109 | – | – | –
[8], 1 µM | – | 108 | – | – | –
[8], 3 µM | – | 115 | – | – | –
[18], 0.1 µM | 109 | – | – | – | –
[18], 0.3 µM | 83 | – | – | – | –
[18], 1 µM | 74 | – | – | – | –
[18], 3 µM | 26 | – | – | – | –
[19], 0.1 µM | – | – | – | -0.01 | –
[19], 0.3 µM | – | – | – | 0.51 | –
[19], 1 µM | – | – | – | 0.6 | –
[19], 3 µM | – | – | – | 0.73 | –

drug-induced phospholipidosis [%], A549-ACE2 [7]
Conditions | 0.3 µM | 0.833333 µM | 3.33333 µM | 6.66667 µM | 10 µM
24 h | 20.1 | 33 | 77.3 | 173 | 149
48 h | 14.3 | 18.9 | 53.1 | 177 | 149
72 h | 13.7 | 15.6 | 43.6 | 149 | 64.6

Conditions | drug sensitivity score | relative viability EC50 [µM]
Caco-2 [12] | 5.1 | –
Caco-2 [16] | – | 3.36
Calu-3 [9] | 5.4 | –
Calu-3 [14] | – | 3.17
HepG2 [13] | 5.1 | –
HepG2 [17] | – | 3.39
U2OS [11] | 5.3 | –
U2OS [15] | – | 3.35
Vero E6 [10] | 3.6 | –

CN(C)CCCN1c2ccccc2Sc2ccc(C(F)(F)F)cc21 [triflupromazine]
Conditions | morphology score, 0.3 µM | morphology score, 3 µM | morphology score, 10 µM | morphology score, 30 µM | phospholipidosis EC50, 24 h [µM] | phospholipidosis EC50, 48 h [µM] | phospholipidosis EC50, 72 h [µM]
A549-ACE2 [6] | – | – | – | – | 4.26 | 11.7 | 3.51
[19] | 0.09 | 0.65 | 0.84 | 0.41 | – | – | –

FC(F)(F)c1ccc(CNc2ccc(Cc3c[nH]c4ncc(Cl)cc34)cn2)cn1 [pexidartinib]
Conditions | SARS-CoV-2 infection rate, [18] [%] | cell count, [8] [%] | cell viability, Caco-2 [4] [%] | cell viability, Calu-3 [1] [%] | cell viability, HepG2 [5] [%] | cell viability, U2OS [3] [%] | cell viability, Vero E6 [2] [%] | morphology score, [19]
1 nM | – | – | 81.7 | 108 | 107 | 94.2 | 99.7 | –
10 nM | – | – | 95.7 | 108 | 92.2 | 100 | 96.4 | –
100 nM | – | – | 98.2 | 97.6 | 105 | 97.9 | 103 | –
0.3 µM | 104 | 95 | – | – | – | – | – | -0.17
1000 nM | – | – | 94.6 | 102 | 94.5 | 102 | 95.3 | –
3 µM | 102 | 101 | – | – | – | – | – | 0.07
10000 nM | – | – | 94.5 | 90 | 80.7 | 96.8 | 113 | –
10 µM | 103 | 101 | – | – | – | – | – | 0.25
30 µM | 67 | 92 | – | – | – | – | – | 0.46

drug-induced phospholipidosis [%], A549-ACE2 [7]
Conditions | 0.3 µM | 0.833333 µM | 3.33333 µM | 6.66667 µM | 10 µM | 30 µM
24 h | 1.33 | -1.52 | 1.3 | 5.68 | 7.59 | 11.6
48 h | 2.9 | -0.74 | 2.56 | 7.51 | 9.31 | 14.4
72 h | 4.54 | -1.68 | 3.26 | 9.4 | 15.6 | 20.7

Conditions | drug sensitivity score | relative viability EC50 [µM]
Caco-2 [12] | 0 | –
Caco-2 [16] | – | > 10
Calu-3 [9] | 0 | –
Calu-3 [14] | – | > 10
HepG2 [13] | 1.2 | –
HepG2 [17] | – | > 10
U2OS [11] | 0 | –
U2OS [15] | – | > 10
Vero E6 [10] | 0 | –
Vero E6 [20] | – | > 10

CCN(CC)CCNC(=O)c1c(C)[nH]c(/C=C2\C(=O)Nc3ccc(F)cc32)c1C [sunitinib]
Conditions | morphology score, 0.1 µM | morphology score, 0.3 µM | morphology score, 1 µM | morphology score, 3 µM | phospholipidosis EC50, 24 h [µM] | phospholipidosis EC50, 48 h [µM] | phospholipidosis EC50, 72 h [µM]
A549-ACE2 [6] | – | – | – | – | 4.75 | 4.77 | 3.32
[19] | 0.28 | 0.35 | 0.53 | 0.51 | – | – | –

Conditions | drug sensitivity score
Caco-2 [12] | 5.7
Calu-3 [9] | 0.1
HepG2 [13] | 9
U2OS [11] | 4
Vero E6 [10] | 4.1

O=C(c1ccc(/C=C/c2n[nH]c3ccccc23)cc1)N1CCNCC1 [KW-2449]
Conditions | SARS-CoV-2 infection rate, [18] [%] | cell count, [8] [%] | cell viability, Caco-2 [4] [%] | cell viability, HepG2 [5] [%] | cell viability, U2OS [3] [%] | cell viability, Vero E6 [2] [%] | morphology score, [19]
1 nM | – | – | 98.7 | 102 | 103 | 103 | –
10 nM | – | – | 98.6 | 108 | 102 | 104 | –
100 nM | – | – | 97.2 | 98.6 | 101 | 99.3 | –
0.3 µM | 98 | 105 | – | – | – | – | 0.33
1000 nM | – | – | 99 | 94.6 | 100 | 101 | –
3 µM | 79 | 59 | – | – | – | – | 0.51
10000 nM | – | – | 108 | 69.6 | 63.1 | 95.3 | –
10 µM | 26 | 39 | – | – | – | – | 0.62
30 µM | 40 | 1 | – | – | – | – | 0.12

drug-induced phospholipidosis [%], A549-ACE2 [7]
Conditions | 0.3 µM | 0.833333 µM | 3.33333 µM | 6.66667 µM | 10 µM
24 h | -0.51 | -0.69 | 3.6 | 13.3 | 8.57
48 h | -1.26 | -3.23 | 0.95 | 9.27 | 0.37
72 h | -0.724 | -3.37 | – | – | –

Conditions | drug sensitivity score | relative viability EC50 [µM]
Caco-2 [12] | 0 | –
Caco-2 [16] | – | > 10
HepG2 [13] | 2.2 | –
U2OS [11] | 1.7 | –
Vero E6 [10] | 0 | –
Vero E6 [20] | – | > 10
